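Interpolation was linear, between the two tested concentrations surrounding the appropriate level; five concentrations were tested over 48 hours in 96-well plates. The concentration for 50% growth inhibition is given as GI50.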 The source made the active and inactive calls. Rule as the data show it: active = GI50 up to about 1.1 µM and inactive = higher.
Tests used:
Assay in all cases: NCI tumour cell line growth inhibition, 48 h
786-0 = test system: 786-0
A498 = test system: A498
A549 = test system: A549
ACHN = test system: ACHN
CAKI-1 = test system: CAKI-1
CCRF-CEM = test system: CCRF-CEM
COLO 205 = test system: COLO 205
DLD-1 = test system: DLD-1
DMS-114 = test system: DMS-114
DMS-273 = test system: DMS-273
EKVX = test system: EKVX
HCC 2998 = test system: HCC 2998
HCT-116 = test system: HCT-116
HCT-15 = test system: HCT-15
HL-60 = test system: HL-60
HOP-18 = test system: HOP-18
HOP-62 = test system: HOP-62
HOP-92 = test system: HOP-92
HT-29 = test system: HT-29
IGROV-1 = test system: IGROV-1
K562 = test system: K562
KM-20L2 = test system: KM-20L2
KM12 = test system: KM12
LOX IMVI = test system: LOX IMVI
LXFL 529 = test system: LXFL 529
M14 = test system: M14
M19-MEL = test system: M19-MEL
MOLT-4 = test system: MOLT-4
Malme-3M = test system: Malme-3M
NCI-H226 = test system: NCI-H226
NCI-H23 = test system: NCI-H23
NCI-H460 = test system: NCI-H460
NCI-H522 = test system: NCI-H522
OVCAR-3 = test system: OVCAR-3
OVCAR-4 = test system: OVCAR-4
OVCAR-5 = test system: OVCAR-5
OVCAR-8 = test system: OVCAR-8
RPMI-8226 = test system: RPMI-8226
RXF 393 = test system: RXF 393
SF-268 = test system: SF-268
SF-295 = test system: SF-295
SF-539 = test system: SF-539
SK-MEL-28 = test system: SK-MEL-28
SK-MEL-2 = test system: SK-MEL-2
SK-MEL-5 = test system: SK-MEL-5
SK-OV-3 = test system: SK-OV-3
SN12C = test system: SN12C
SNB-19 = test system: SNB-19
SNB-75 = test system: SNB-75
SNB-78 = test system: SNB-78
SR = test system: SR
SW-620 = test system: SW-620
TK-10 = test system: TK-10
U-251 = test system: U-251
UACC-257 = test system: UACC-257
UACC-62 = test system: UACC-62
UO-31 = test system: UO-31
XF498 = test system: XF498
RXF 631 = test system: RXF 631
BT-549 = test system: BT-549
DU-145 = test system: DU-145
Hs-578T = test system: Hs-578T
MCF7 = test system: MCF7
MDA-MB-231 = test system: MDA-MB-231
MDA-MB-435 = test system: MDA-MB-435
MDA-N = test system: MDA-N
NCI/ADR-RES = test system: NCI/ADR-RES
PC-3 = test system: PC-3
T47D = test system: T47D

Measured: GI50

Cc1ccc(N(C(=O)CC(=O)N2N=C(c3ccccc3)C(/N=N/c3ccc([N+](=O)[O-])cc3)C2=O)C(=O)c2ccc(Cl)cc2)cc1 (stereo not drawn)
inactive: 786-0 14.4 µM | A498 6.14 µM | A549 22.7 µM | ACHN 28.4 µM | CAKI-1 28.4 µM | CCRF-CEM 5.27 µM | COLO 205 5.31 µM | DLD-1 21.2 µM | DMS-114 20 µM | DMS-273 5.94 µM | EKVX 99.5 µM | HCC 2998 51.2 µM | HCT-116 8.59 µM | HL-60 19.2 µM | HOP-18 27.4 µM | HOP-62 10.3 µM | HOP-92 22.5 µM | HT-29 31 µM | IGROV-1 16.8 µM | K562 24.7 µM | KM-20L2 23.3 µM | KM12 20.4 µM | LOX IMVI 3.7 µM | LXFL 529 15.5 µM | M14 5.69 µM | M19-MEL 26 µM | MOLT-4 > 42.1 µM | Malme-3M > 100 µM | NCI-H226 20.7 µM | NCI-H23 5.98 µM | NCI-H460 19 µM | NCI-H522 3.65 µM | OVCAR-3 24 µM | OVCAR-4 36.1 µM | OVCAR-5 20.5 µM | OVCAR-8 18.1 µM | RPMI-8226 21.1 µM | RXF 393 5.16 µM | SF-268 9.04 µM | SF-295 9.2 µM | SF-539 19.8 µM | SK-MEL-28 48.5 µM | SK-MEL-2 > 38.8 µM | SK-MEL-5 16.9 µM | SK-OV-3 12.2 µM | SN12C 18.5 µM | SNB-19 17.3 µM | SNB-75 10.4 µM | SNB-78 6.95 µM | SR 1.66 µM | SW-620 21.6 µM | TK-10 10.9 µM | U-251 6.27 µM | UACC-257 30.9 µM | UACC-62 30.3 µM | UO-31 16.3 µM | XF498 21.8 µM
13.2 µM: HCT-15

O=c1[nH]c(-c2ccc(-c3nc4cc([N+](=O)[O-])ccc4c(=O)[nH]3)cc2)nc2cc([N+](=O)[O-])ccc12
> 100 µM: HCT-15
inactive: 786-0 72.9 µM | A498 16 µM | A549 > 100 µM | ACHN > 100 µM | CAKI-1 > 100 µM | CCRF-CEM > 100 µM | COLO 205 > 100 µM | DLD-1 > 100 µM | DMS-114 > 100 µM | DMS-273 > 100 µM | EKVX > 100 µM | HCC 2998 > 100 µM | HCT-116 > 100 µM | HL-60 > 100 µM | HOP-62 > 100 µM | HOP-92 > 100 µM | HT-29 > 100 µM | IGROV-1 > 100 µM | K562 > 100 µM | KM-20L2 > 100 µM | KM12 > 100 µM | LOX IMVI > 100 µM | LXFL 529 > 100 µM | M14 > 100 µM | M19-MEL > 100 µM | MOLT-4 > 100 µM | Malme-3M > 100 µM | NCI-H226 > 100 µM | NCI-H23 > 100 µM | NCI-H460 > 100 µM | NCI-H522 > 100 µM | OVCAR-3 > 100 µM | OVCAR-4 48.8 µM | OVCAR-5 > 100 µM | OVCAR-8 > 100 µM | RPMI-8226 > 100 µM | RXF 393 > 100 µM | RXF 631 > 100 µM | SF-295 > 100 µM | SF-539 > 100 µM | SK-MEL-28 > 100 µM | SK-MEL-2 > 100 µM | SK-MEL-5 > 100 µM | SK-OV-3 > 100 µM | SN12C > 100 µM | SNB-19 > 100 µM | SNB-75 42.1 µM | SNB-78 > 100 µM | SR > 100 µM | SW-620 > 100 µM | TK-10 > 100 µM | U-251 > 100 µM | UACC-257 > 100 µM | UACC-62 > 100 µM | UO-31 > 100 µM

NS(=O)(=O)c1cc2c(cc1Cl)NC(/C(=N/NC(=O)c1ccncc1)C1C(=O)NC(=O)NC1=O)=NS2(=O)=O
> 100 µM: HCT-15
inactive: 786-0 > 100 µM | A498 > 100 µM | A549 > 100 µM | ACHN > 100 µM | CAKI-1 > 100 µM | CCRF-CEM > 100 µM | COLO 205 > 100 µM | DLD-1 > 100 µM | DMS-114 > 100 µM | DMS-273 > 100 µM | EKVX > 100 µM | HCC 2998 > 100 µM | HCT-116 55.8 µM | HL-60 > 100 µM | HOP-62 > 100 µM | HOP-92 > 100 µM | IGROV-1 > 100 µM | K562 > 100 µM | KM-20L2 > 100 µM | KM12 > 100 µM | LOX IMVI > 100 µM | LXFL 529 > 100 µM | M14 > 100 µM | M19-MEL > 100 µM | MOLT-4 > 100 µM | Malme-3M > 100 µM | NCI-H460 > 100 µM | OVCAR-3 > 100 µM | OVCAR-4 > 100 µM | OVCAR-5 > 100 µM | OVCAR-8 > 100 µM | RPMI-8226 > 100 µM | RXF 631 > 100 µM | SF-295 > 100 µM | SF-539 > 100 µM | SK-MEL-2 > 100 µM | SK-MEL-5 > 100 µM | SK-OV-3 > 100 µM | SNB-19 83.6 µM | SNB-78 > 100 µM | SW-620 > 100 µM | TK-10 > 100 µM | U-251 > 100 µM | UACC-257 > 100 µM | UACC-62 > 100 µM | UO-31 95.3 µM

O=C1c2nc3n(c2C(=O)c2c1nc1n2CCC1)CCC3
active: M19-MEL 0.184 µM | Malme-3M 0.904 µM
inactive: 786-0 5.25 µM | A498 16 µM | A549 4.39 µM | ACHN 10.9 µM | BT-549 > 10 µM | CAKI-1 9.35 µM | CCRF-CEM 6.41 µM | COLO 205 5.89 µM | DLD-1 5.09 µM | DMS-114 2.04 µM | DMS-273 3.3 µM | DU-145 > 10 µM | EKVX 15.6 µM | HCC 2998 8.22 µM | HCT-116 3.03 µM | HOP-18 14 µM | HOP-62 4.62 µM | HOP-92 13.1 µM | HT-29 3.14 µM | Hs-578T > 10 µM | IGROV-1 11.5 µM | K562 13 µM | KM-20L2 3.61 µM | KM12 4.41 µM | LOX IMVI 3.1 µM | LXFL 529 9.93 µM | M14 1.76 µM | MCF7 2.68 µM | MDA-MB-231 > 10 µM | MDA-MB-435 2.02 µM | MDA-N 1.77 µM | MOLT-4 5.46 µM | NCI-H226 6.97 µM | NCI-H23 2.49 µM | NCI-H460 1.82 µM | NCI-H522 6.44 µM | NCI/ADR-RES > 10 µM | OVCAR-3 2.71 µM | OVCAR-4 4.71 µM | OVCAR-5 16.9 µM | OVCAR-8 5.46 µM | PC-3 > 10 µM | RPMI-8226 15.1 µM | RXF 393 2.74 µM | SF-268 8.28 µM | SF-295 5.37 µM | SF-539 3.64 µM | SK-MEL-28 13.3 µM | SK-MEL-2 3.66 µM | SK-MEL-5 1.44 µM | SK-OV-3 23.7 µM | SN12C 3.64 µM | SNB-19 14.7 µM | SNB-75 15.2 µM | SNB-78 13.8 µM | SR 3.01 µM | SW-620 5.13 µM | T47D > 10 µM | TK-10 27.6 µM | U-251 6.79 µM | UACC-257 2.2 µM | UACC-62 1.85 µM | UO-31 18.8 µM | XF498 6.38 µM
5.79 µM: HCT-15

From ChEMBL document CHEMBL1201862, “PubChem BioAssay data set” (2004)
